Experimental data taken from PubChem BioAssay (NCI).
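Method: 48-hour compound exposure of cells in 96-well plates, five concentrations, linear interpolation of endpoints. At the TGI there is no net growth.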

How the values were obtained:
Assay in all cases: NCI anticancer screen, dose series, 48 h
SK-MEL-2 melanoma = tested on: SK-MEL-2 melanoma
ACHN renal = tested on: ACHN renal
DLD-1 colon = tested on: DLD-1 colon
IGROV1 ovarian = tested on: IGROV1 ovarian
786-0 renal = tested on: 786-0 renal
HCT-15 colon = tested on: HCT-15 colon
SF-295 CNS = tested on: SF-295 CNS
HT29 colon = tested on: HT29 colon
SK-OV-3 ovarian = tested on: SK-OV-3 ovarian
M14 melanoma = tested on: M14 melanoma
UO-31 renal = tested on: UO-31 renal
LXFL 529 NSCLC = tested on: LXFL 529 NSCLC
SNB-19 CNS = tested on: SNB-19 CNS
K-562 leukemia = tested on: K-562 leukemia
COLO 205 colon = tested on: COLO 205 colon
SNB-78 CNS = tested on: SNB-78 CNS
HL-60(TB) leukemia = tested on: HL-60(TB) leukemia
OVCAR-5 ovarian = tested on: OVCAR-5 ovarian
HOP-92 NSCLC = tested on: HOP-92 NSCLC
MOLT-4 leukemia = tested on: MOLT-4 leukemia
UACC-257 melanoma = tested on: UACC-257 melanoma
MALME-3M melanoma = tested on: MALME-3M melanoma
SR leukemia = tested on: SR leukemia
XF 498 CNS = tested on: XF 498 CNS
SF-539 CNS = tested on: SF-539 CNS
OVCAR-3 ovarian = tested on: OVCAR-3 ovarian
OVCAR-8 ovarian = tested on: OVCAR-8 ovarian
RXF-631 renal = tested on: RXF-631 renal
SF-268 CNS = tested on: SF-268 CNS
SNB-75 CNS = tested on: SNB-75 CNS
SW-620 colon = tested on: SW-620 colon
KM20L2 colon = tested on: KM20L2 colon
CCRF-CEM leukemia = tested on: CCRF-CEM leukemia
EKVX NSCLC = tested on: EKVX NSCLC
SN12C renal = tested on: SN12C renal
DMS 114 small cell lung = tested on: DMS 114 small cell lung
U251 CNS = tested on: U251 CNS
NCI-H460 lung = tested on: NCI-H460 lung
KM12 colon = tested on: KM12 colon
RXF 393 renal = tested on: RXF 393 renal
LOX IMVI melanoma = tested on: LOX IMVI melanoma
DMS 273 small cell lung = tested on: DMS 273 small cell lung
RPMI-8226 leukemia = tested on: RPMI-8226 leukemia
NCI-H226 lung = tested on: NCI-H226 lung
HOP-62 NSCLC = tested on: HOP-62 NSCLC
A549 NSCLC = tested on: A549 NSCLC
UACC-62 melanoma = tested on: UACC-62 melanoma
NCI-H23 lung = tested on: NCI-H23 lung

Measured: TGI

CC1(CO)OC1COCc1ccccc1 (stereo not drawn)
> 100 µM: SK-MEL-2 melanoma | ACHN renal | DLD-1 colon | IGROV1 ovarian | 786-0 renal | HCT-15 colon | SF-295 CNS | HT29 colon | SK-OV-3 ovarian | M14 melanoma | UO-31 renal | LXFL 529 NSCLC | SNB-19 CNS | K-562 leukemia | COLO 205 colon | SNB-78 CNS | HL-60(TB) leukemia | OVCAR-5 ovarian | HOP-92 NSCLC | MOLT-4 leukemia | UACC-257 melanoma | MALME-3M melanoma | SR leukemia | XF 498 CNS | SF-539 CNS | OVCAR-3 ovarian | OVCAR-8 ovarian | RXF-631 renal | SF-268 CNS | SNB-75 CNS | SW-620 colon | KM20L2 colon | CCRF-CEM leukemia | EKVX NSCLC | SN12C renal | DMS 114 small cell lung | U251 CNS | NCI-H460 lung | KM12 colon | RXF 393 renal | LOX IMVI melanoma | DMS 273 small cell lung | RPMI-8226 leukemia | NCI-H226 lung | HOP-62 NSCLC | A549 NSCLC | UACC-62 melanoma | NCI-H23 lung
